What is called melting point is the temperature of the solid-liquid transition.

Counter-ions that a name gives are not always drawn.

This note sets out measurements from patent publication US7776880B2, “Derivatives of pyrrolizine, indolizine and quinolizine, preparation thereof and therapeutic use thereof” (sanofi-aventis, priority 2006, dated 2010).

One data set has as its target T1, native human transporter GlyT1 (Homo sapiens, UniProt P48067).
T1 construct: SK-N-MC cells (human neuroepithelial cells) expressing the native human transporter GlyT1; endogenous in cells; host or cells: SK-N-MC (human neuroepithelial cells)
T1 sequence (P48067 1-706): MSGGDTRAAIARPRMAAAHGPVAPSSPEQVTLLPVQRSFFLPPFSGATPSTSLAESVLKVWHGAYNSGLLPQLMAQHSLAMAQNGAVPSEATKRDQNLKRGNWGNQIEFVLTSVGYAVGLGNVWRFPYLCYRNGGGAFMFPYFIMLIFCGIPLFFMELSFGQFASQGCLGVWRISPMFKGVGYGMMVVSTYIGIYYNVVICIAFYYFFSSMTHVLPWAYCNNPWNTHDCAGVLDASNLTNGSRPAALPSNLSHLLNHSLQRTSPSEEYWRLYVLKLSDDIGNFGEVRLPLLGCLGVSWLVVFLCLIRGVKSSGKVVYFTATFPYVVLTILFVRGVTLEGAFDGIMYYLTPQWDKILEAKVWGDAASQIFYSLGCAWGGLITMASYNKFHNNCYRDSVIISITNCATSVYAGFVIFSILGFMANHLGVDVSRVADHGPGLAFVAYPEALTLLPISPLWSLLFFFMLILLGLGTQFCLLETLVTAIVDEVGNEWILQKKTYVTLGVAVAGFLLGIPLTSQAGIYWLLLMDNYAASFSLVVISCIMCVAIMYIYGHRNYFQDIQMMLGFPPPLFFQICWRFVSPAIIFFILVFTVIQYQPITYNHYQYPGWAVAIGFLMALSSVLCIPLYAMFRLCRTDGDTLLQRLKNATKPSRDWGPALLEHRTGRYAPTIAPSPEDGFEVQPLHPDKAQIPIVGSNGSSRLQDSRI
The data set is described as follows: Uptake of [14C]glycine in SK-N-MC cells expressing the native human transporter GlyT1. Particulars: 10 μM [14C]glycine, 10 min preincubation and 10 min incubation at 37° C., pH 7.4, read-out: IC50, the concentration of the compound which reduces by 50% the specific uptake of glycine. Type of data set: cell-based. The procedure: Study of glycine transportation in SK-N-MC cells expressing the native human transporter GlyT1.
The uptake of [^14C]glycine is studied in SK-N-MC cells (human neuroepithelial cells) expressing the native human transporter GlyT1 by measuring the radioactivity incorporated in the presence or absence of the test compound. The cells are cultured as a monolayer for 48 hours in plates pretreated with 0.02% fibronectin. On the day of the experiment, the culture medium is removed and the cells are washed with Krebs-HEPES (4-(2-hydroxyethyl)piperazine-1-ethanesulphonic acid) buffer at pH 7.4. After preincubation for 10 minutes at 37° C. in the presence either of buffer (control batch) or of test compound at various concentrations or of 10 mM of glycine (determination of the non-specific uptake), 10 μM of [^14C]glycine (specific activity 112 mCi/mmol) are subsequently added. Incubation is continued for 10 min at 37° C. and the reaction is halted by washing twice with pH 7.4 Krebs-HEPES buffer. The radioactivity incorporated by the cells is then estimated after adding 100 μl of liquid scintillant and stirring for 1 h. Counting is carried out on a Microbeta Tri-Lux™ counter. The effectiveness of the compound is determined by the IC50, the concentration of the compound which reduces by 50% the specific uptake of glycine, defined by the difference in radioactivity incorporated by the control batch and the batch which received the 10 mM glycine.
On to `O=C(NC(c1ccccc1)C1CCCC2CCCN21)c1cccc(C(F)(F)F)c1Cl` (racemic) [Compound 1, trans-threo-2-Chloro-N-[(octahydroindolizin-5-yl)phenylmethyl]-3-trifluoromethyl-benzamide hydrochloride 1:1], for which the IC50 is 80 nM. The same measure, in the same setting: next, `O=C(N[C@H](c1ccccc1)[C@@H]1CCC[C@H]2CCCN21)c1cccc(C(F)(F)F)c1Cl` (racemic) [Compound 2, trans-erythro-2-chloro-N-[(octahydroindolizin-5-yl)phenylmethyl]-3-trifluoromethyl-benzamide hydrochloride 1:1]: 23 nM; `O=C(NC(c1ccccc1)C1CCC2CCCCN21)c1cccc(C(F)(F)F)c1Cl` (racemic) [Compound 5, trans-threo-2-Chloro-N-[(octahydroindolizin-3-yl)phenylmethyl]-3-trifluoromethyl-benzamide hydrochloride 1.1]: 3 nM.

System in another data set: not given
Assay: not given
Details: not given
The compound `O=C(NC(c1ccccc1)C1CCCC2CCCN21)c1cccc(C(F)(F)F)c1Cl` (racemic) (as salt: HCl) [Compound 1, trans-threo-2-Chloro-N-[(octahydroindolizin-5-yl)phenylmethyl]-3-trifluoromethyl-benzamide hydrochloride 1:1] had a melting point of 132 to 134 °C.

Consider `O=C(N[C@H](c1ccccc1)[C@@H]1CCC[C@H]2CCCN21)c1cccc(C(F)(F)F)c1Cl` (racemic) (as salt: HCl) [Compound 2, trans-erythro-2-chloro-N-[(octahydroindolizin-5-yl)phenylmethyl]-3-trifluoromethyl-benzamide hydrochloride 1:1], for which the melting point is 132 to 134 °C. Turning to `O=C(NC(c1ccccc1)C1CCC2CCCCN21)c1cccc(C(F)(F)F)c1Cl` (racemic) (as salt: HCl) [Compound 5, trans-threo-2-Chloro-N-[(octahydroindolizin-3-yl)phenylmethyl]-3-trifluoromethyl-benzamide hydrochloride 1.1], the melting point was 138 to 139 °C.
